Source: patent US9527828B2, “Method for expanding hematopoietic stem cells using heterocyclic compound” (Nissan Chemical Industries, Ltd., priority 2007, dated 2016)

Tested on: CD34^+CD38^− cells
Assay: Expansion of CD34+CD38− cells from human cord blood-derived CD34+ cells (Example 2)
Type: cell-based
Conditions: Homo sapiens, 168 h, 1 μg/mL compound, 50 ng/mL SCF, StemSpan SFEM, 7 days; based on number of CD34+CD38− cells in the absence of compound; read-out: Expansion efficiency
Procedure: The human cord blood-derived CD34^+ cells collected or purchased in Example 1 were plated on a 24-well plate (TPP) (10000 cells/1/mL/well). As the culture medium, StemSpan SFEM (Stemcell Technologies) containing 50 ng/mL SCF (Peprotech) was used, and Compounds No. 1 to 133 dissolved in dimethyl sulfoxide were added in an amount of 0.1% (v/v) to a final concentration of 1 μg/mL.
After the cells were incubated in liquid culture at 37° C. for 7 days in a CO2 incubator (5% CO2), the number of viable cells was counted by trypan blue assay. The number of CD34^+CD38^− cells was calculated as follows. After the incubation, the cells in the liquid culture was stained with a CD34 antibody (APC, Becton, Dickinson and Company) and a CD38 antibody (PE, Becton, Dickinson and Company), then washed with PBS(−) containing 2% (v/v) FBS and stained with propidium iodide (Sigma-Aldrich Japan) added to a final concentration of 5 μg/mL. The stained cells were analyzed with a flow cytometer JSAN (Bay Bioscience) to determined the proportion of CD34^+CD38^− cells, which was multiplied by the number of viable cells to calculate the number of CD34^+CD38^− cells.
The expansion efficiencies in the presence of 1 μg/mL of compounds based on the number of CD34^+CD38^− cells in the absence of them are shown in Tables 2 and 3 on a scale of A for expansion efficiencies of 10 or greater, B for expansion efficiencies of at least 5 and less than 10, and C for expansion efficiencies of at least 3 and less than 5.

Row | Compound | fold induction at 1 µg/mL
1 | C/C(=N\NC(=O)c1ccc(C(=O)NCc2cc[n+]([O-])cc2)s1)c1csc(-c2ccc(Cl)c(Cl)c2)c1O [compound 3] | ≥ 10
2 | C/C(=N\NC(=O)c1ccc(C(=O)NCc2ccncc2)s1)c1csc(-c2ccc(Cl)c(Cl)c2)c1O [compound 5] | ≥ 10
3 | COc1cc(CNC(=O)c2ccc(C(=O)N/N=C(\C)c3csc(-c4ccc(Cl)c(Cl)c4)c3O)s2)on1 [compound 7] | ≥ 10
4 | C/C(=N\NC(=O)c1ccc(C(=O)NCc2cnccn2)s1)c1csc(-c2ccc(Cl)c(Cl)c2)c1O [compound 8] | ≥ 10
5 | C/C(=N\NC(=O)c1ccc(C(=O)NCCO)s1)c1csc(-c2ccc(Cl)cc2)c1O [compound 10] | ≥ 10
6 | CNC(=O)c1ccc(C(=O)N/N=C(\C)c2csc(-c3ccc(Cl)cc3)c2O)s1 [compound 11] | ≥ 10
7 | C/C(=N\NC(=O)c1ccc(C(=O)NCc2cccs2)s1)c1csc(-c2ccc(Cl)cc2)c1 [compound 12] | ≥ 10
8 | C/C(=N\NC(=O)c1ccc(C(=O)NCc2cc(C)on2)s1)c1csc(-c2ccc(OC(F)(F)F)cc2)c1O [compound 13] | ≥ 10
9 | C/C(=N\NC(=O)c1ccc(C(=O)NCc2cnc(C)cn2)s1)c1csc(-c2ccc(OC(F)(F)F)cc2)c1O [compound 14] | ≥ 10
10 | COc1cc(CNC(=O)c2ccc(C(=O)N/N=C(\C)c3csc(-c4ccc(OC(F)(F)F)cc4)c3O)s2)on1 [compound 15] | ≥ 10
11 | C/C(=N\NC(=O)c1ccc(C(=O)NCc2ccccc2)s1)c1csc(-c2ccc(Cl)c(Cl)c2)c1O [compound 16] | ≥ 10
12 | COc1cc(CNC(=O)c2ccc(C(=O)N/N=C(\C)c3csc(-c4ccc(Cl)cc4)c3O)s2)on1 [compound 17] | ≥ 10
13 | C/C(=N\NC(=O)c1ccc(C(=O)NCc2cc[n+]([O-])cc2)s1)c1csc(-c2ccc(Cl)cc2)c1O [compound 18] | ≥ 10
14 | C/C(=N\NC(=O)c1ccc(C(=O)NCc2cc(C)n(C)n2)s1)c1csc(-c2ccc(Cl)cc2)c1O [compound 19] | ≥ 10
15 | C/C(=N\NC(=O)c1ccc(C(=O)NC2CC2)s1)c1csc(-c2ccc(Cl)c(Cl)c2)c1 [compound 21] | ≥ 10
16 | COCCNC(=O)c1ccc(C(=O)N/N=C(\C)c2csc(-c3ccc(Cl)c(Cl)c3)c2O)s1 [compound 22] | 5 to 10
17 | C/C(=N\NC(=O)c1ccc(C(=O)NCCN2CCOCC2)s1)c1csc(-c2ccc(Cl)c(Cl)c2)c1O [compound 23] | 5 to 10
18 | CCNC(=O)c1ccc(C(=O)N/N=C(\C)c2csc(-c3ccc(Cl)c(Cl)c3)c2O)s1 [compound 24] | 5 to 10
19 | C/C(=N\NC(=O)c1ccc(C(=O)NCc2cccs2)s1)c1csc(-c2ccc(Cl)c(Cl)c2)c1O [compound 25] | 5 to 10
20 | C/C(=N\NC(=O)c1ccc(C(=O)N(C)Cc2ccccc2)s1)c1csc(-c2ccc(Cl)c(Cl)c2)c1O [compound 26] | ≥ 10

Row | Compound | fold induction at 1 µg/mL
21 | CCCCCN(C)C(=O)c1ccc(C(=O)N/N=C(\C)c2csc(-c3ccc(Cl)c(Cl)c3)c2O)s1 [compound 27] | 5 to 10
22 | C/C(=N\NC(=O)c1ccc(C(=O)N(C(C)C)C(C)C)s1)c1csc(-c2ccc(Cl)c(Cl)c2)c1O [compound 28] | ≥ 10
23 | C/C(=N\NC(=O)c1ccc(C(=O)NCCN2CCOCC2)s1)c1csc(-c2ccc(OC(F)(F)F)cc2)c1O [compound 29] | ≥ 10
24 | C/C(=N\NC(=O)c1ccc(C(=O)NCc2cccs2)s1)c1csc(-c2cccc(Cl)c2)c1O [compound 30] | 5 to 10
25 | CCCNC(=O)c1ccc(C(=O)N/N=C(\C)c2csc(-c3ccc(Cl)cc3)c2O)s1 [compound 31] | ≥ 10
26 | C/C(=N\NC(=O)c1ccc(C(=O)NCc2ccccn2)s1)c1csc(-c2ccc(Cl)cc2)c1O [compound 32] | 5 to 10
27 | C/C(=N\NC(=O)c1ccc(C(=O)NCCCN2CCOCC2)s1)c1csc(-c2ccc(Br)cc2)c1O [compound 33] | 5 to 10
28 | C/C(=N\NC(=O)c1ccc(C(=O)NCCN2CCOCC2)s1)c1csc(-c2ccc(Br)cc2)c1O [compound 34] | 3 to 5
29 | C/C(=N\NC(=O)c1ccc(C(=O)NCc2cscn2)s1)c1csc(-c2ccc(Cl)c(Cl)c2)c1O [compound 35] | 5 to 10
30 | C/C(=N\NC(=O)c1ccc(C(=O)NCc2ncccn2)s1)c1csc(-c2ccc(Cl)c(Cl)c2)c1O [compound 36] | ≥ 10
31 | C/C(=N\NC(=O)c1ccc(C(=O)NCc2cc(C)on2)s1)c1csc(-c2ccc(Cl)c(Cl)c2)c1O [compound 38] | ≥ 10
32 | C/C(=N\NC(=O)c1ccc(C(=O)NCc2cnc(C)cn2)s1)c1csc(-c2ccc(Cl)c(Cl)c2)c1O [compound 39] | 5 to 10
33 | C/C(=N\NC(=O)c1ccc(C(=O)NCc2ccno2)s1)c1csc(-c2ccc(Cl)c(Cl)c2)c1O [compound 40] | 5 to 10
34 | C/C(=N\NC(=O)c1ccc(C(=O)NCc2c(C)nn(C)c2C)s1)c1csc(-c2ccc(Cl)c(Cl)c2)c1O [compound 41] | 5 to 10
35 | COc1c(/C(C)=N/NC(=O)c2ccc(C(=O)NCc3ccncc3)s2)csc1-c1ccc(Cl)c(Cl)c1 [compound 42] | 5 to 10
36 | C/C(=N\NC(=O)c1ccc(C(=O)NCc2ccnnc2)s1)c1csc(-c2ccc(Cl)c(Cl)c2)c1O [compound 43] | ≥ 10
37 | C/C(=N\NC(=O)c1ccc(C(=O)NCc2cccnn2)s1)c1csc(-c2ccc(Cl)c(Cl)c2)c1O [compound 44] | 5 to 10
38 | C/C(=N\NC(=O)c1ccc(C(=O)NCc2ccnn2C)s1)c1csc(-c2ccc(C(F)(F)F)cc2)c1O [compound 45] | 5 to 10
39 | C/C(=N\NC(=O)c1ccc(C(=O)NCc2cc(C)on2)s1)c1csc(-c2ccc(C(F)(F)F)cc2)c1O [compound 46] | 5 to 10
40 | C/C(=N\NC(=O)c1ccc(C(=O)NCc2cc(Cl)no2)s1)c1csc(-c2ccc(Cl)c(Cl)c2)c1O [compound 47] | 5 to 10

Row | Compound | fold induction at 1 µg/mL
41 | C/C(=N\NC(=O)c1ccc(C(=O)NCc2ccno2)s1)c1csc(-c2ccc(C(F)(F)F)cc2)c1O [compound 48] | 5 to 10
42 | C/C(=N\NC(=O)c1ccc(C(=O)NCc2c(C)nn(C)c2C)s1)c1csc(-c2ccc(C(F)(F)F)cc2)c1O [compound 49] | 5 to 10
43 | COc1cc(CNC(=O)c2ccc(C(=O)N/N=C(\C)c3csc(-c4ccc(C(F)(F)F)cc4)c3O)s2)on1 [compound 50] | 5 to 10
44 | C/C(=N\NC(=O)c1ccc(C(=O)NCc2cncn2C)s1)c1csc(-c2ccc(Cl)c(Cl)c2)c1O [compound 51] | 5 to 10
45 | C/C(=N\NC(=O)c1ccc(C(=O)NCc2cncn2C)s1)c1csc(-c2ccc(C(F)(F)F)cc2)c1O [compound 52] | 5 to 10
46 | C/C(=N\NC(=O)c1ccc(C(=O)NCc2cnn(C)n2)s1)c1csc(-c2ccc(Cl)c(Cl)c2)c1O [compound 53] | 5 to 10
47 | C/C(=N\NC(=O)c1ccc(C(=O)NCc2cnn(C)n2)s1)c1csc(-c2ccc(C(F)(F)F)cc2)c1O [compound 54] | 5 to 10
48 | C/C(=N\NC(=O)c1ccc(C(=O)NCc2cn(C)cn2)s1)c1csc(-c2ccc(C(F)(F)F)cc2)c1O [compound 55] | 5 to 10
49 | C/C(=N\NC(=O)c1ccc(C(=O)NCc2cc(C)n(C)n2)s1)c1csc(-c2ccc(C(F)(F)F)cc2)c1O [compound 56] | 5 to 10
50 | C/C(=N\NC(=O)c1ccc(C(=O)NCc2cc[n+]([O-])cc2)s1)c1csc(-c2ccc(C(F)(F)F)cc2)c1O [compound 57] | 5 to 10
51 | C/C(=N\NC(=O)c1ccc(C(=O)NCc2ccnn2C)s1)c1csc(-c2ccc(Cl)cc2)c1O [compound 58] | 5 to 10
52 | C/C(=N\NC(=O)c1ccc(C(=O)NCc2ccc(S(C)(=O)=O)cc2)s1)c1csc(-c2ccc(Cl)c(Cl)c2)c1O [compound 59] | 5 to 10
53 | C/C(=N\NC(=O)c1ccc(C(=O)NCc2ccc(C#N)cc2)s1)c1csc(-c2ccc(Cl)c(Cl)c2)c1O [compound 60] | ≥ 10
54 | C/C(=N\NC(=O)c1ccc(C(=O)NCc2ccc(S(N)(=O)=O)cc2)s1)c1csc(-c2ccc(Cl)c(Cl)c2)c1O [compound 61] | 5 to 10
55 | CCCNC(=O)c1ccc(C(=O)N/N=C(\C)c2csc(-c3ccc(Cl)c(Cl)c3)c2O)s1 [compound 62] | 3 to 5
56 | C/C(=N\NC(=O)c1ccc(C(=O)NC2CCCC2)s1)c1csc(-c2ccc(Cl)c(Cl)c2)c1O [compound 63] | 3 to 5
57 | C/C(=N\NC(=O)c1ccc(C(=O)NCCCN(C)C)s1)c1csc(-c2ccc(Cl)c(Cl)c2)c1O [compound 64] | 3 to 5
58 | C/C(=N\NC(=O)c1ccc(C(=O)NCCO)s1)c1csc(-c2ccc(Cl)c(Cl)c2)c1O [compound 65] | 5 to 10
59 | C/C(=N\NC(=O)c1ccc(C(=O)NCCN(C)C)s1)c1csc(-c2ccc(Cl)c(Cl)c2)c1O [compound 66] | 3 to 5
